According to PMC3501516, “Anti-Diabetic Efficacy and Impact on Amino Acid Metabolism of GRA1, a Novel Small-Molecule Glucagon Receptor Antagonist” (PLoS ONE, 2012):

Assays:
human GCGR (hGCGR) = target: T1, human GCGR (hGCGR) (Homo sapiens, UniProt P47871); assay: Inhibition of glucagon-stimulated cAMP production in intact CHO cells expressing human GCGR; type: cell-based
T1 construct: expressed in transfected cells
Source text: Transfected Chinese hamster ovary (CHO) cell lines were acquired and maintained as previously described, [20]. These included separate cell lines stably expressing human GCGR (hGCGR), mouse GCGR, rhesus GGCR, glucose-dependent insulinotropic peptide receptor (GIPR), GLP-1 receptor (GLP-1R), pituitary adenylate cyclase-activating polypeptide receptor type 1 (PAC1R), and vasoactive adenylate cyclase-activating polypeptide receptor type 2 (VPAC2R). Inhibition of glucagon binding to hGCGR was assayed in cell membranes prepared from the line of CHO cells that expressed the hGCGR. Functional antagonism was assayed by measuring the production of cAMP in intact CHO cells stimulated by agonists specific for their cognate receptors (i.e., glucagon for GCGR-expressing cell lines, GIP for the GIPR-expressing line, etc.). Primary human hepatocytes were obtained from In Vitro Technologies (Baltimore, MD) and glucagon-stimulated glycogenolysis was studied in these as previously described.

[1] = Pharmacokinetics / plasma GRA1 concentrations in rhesus monkeys; type: in vivo, rhesus monkey
hGCGR mouse = assay: Blunting of glucagon-induced blood glucose excursion in hGCGR mouse; type: in vivo; conditions: vehicle 1393±179
Experimental: In mouse studies of glucagon-induced excursions in blood glucose, animals were dosed orally with vehicle (10 mL/kg 0.5% aqueous methylcellulose) or GRA1 one hour prior to challenge by intraperitoneal injection of 15 µg/kg glucagon (Eli Lilly, Indianapolis, IN) or vehicle, [20]. In the studies in monkey, GRA1 or vehicle was administered to chair-restrained animals via a nasogastric tube 4 h prior to intramuscular injection of 15 µg/kg glucagon. Blood glucose measurements were made using a OneTouch glucometer (Lifescan, Milpitas, CA).
Figure 3 Blunting of glucagon-induced blood glucose excursions by GRA1 treatment in the (A) hGCGR mouse and (B) rhesus monkey. In (A), mice (n = 8) were administered vehicle or 3, 10 or 30 mg/kg GRA1, then challenged 1 h later (time 0) by intraperitoneal injection of 15 µg/kg glucagon or vehicle. Pharmacokinetic analysis determined that these animals had mean plasma GRA1 concentrations of 0.4, 0.9, and 4.7 µM, respectively, at 1 h postdose. In (B), monkeys (n = 4) were administered 1 mg/kg GRA1 4 h prior to intramuscular injection of 15 µg/kg glucagon or vehicle. At 1 h postdose, the mean plasma GRA1 concentration in these animals was 0.2 µM. *p<0.05; **p<0.01; and ***p<0.001 vs. glucagon-treated control animals.

rhesus monkeys = assay: Fasted plasma glucagon, glucose and amino acids in rhesus monkeys dosed 14 days; type: in vivo, rhesus monkey
Experimental: In a follow-up experiment, adult rhesus monkeys were dosed once daily for 14 days with 30 mg/kg GRA1 or vehicle (0.5% methylcellulose plus 0.02% sodium dodecyl sulfate in 2 mL/kg water) delivered by oral gavage. Blood samples were collected on days 0, 1, 7, and 14 after the animals had fasted overnight. Plasma concentrations of glucose, glucagon, and amino acids were assayed by the Hormone Assay & Analytical Services Core at Vanderbilt University (Nashville, TN).

[2] = rhesus, 30 mg/kg once daily, Day 0
[3] = rhesus, 30 mg/kg once daily, Day 1
[4] = rhesus, 30 mg/kg once daily, Day 7
[5] = rhesus, 30 mg/kg once daily, Day 14

T1 sequence (P47871 26-477): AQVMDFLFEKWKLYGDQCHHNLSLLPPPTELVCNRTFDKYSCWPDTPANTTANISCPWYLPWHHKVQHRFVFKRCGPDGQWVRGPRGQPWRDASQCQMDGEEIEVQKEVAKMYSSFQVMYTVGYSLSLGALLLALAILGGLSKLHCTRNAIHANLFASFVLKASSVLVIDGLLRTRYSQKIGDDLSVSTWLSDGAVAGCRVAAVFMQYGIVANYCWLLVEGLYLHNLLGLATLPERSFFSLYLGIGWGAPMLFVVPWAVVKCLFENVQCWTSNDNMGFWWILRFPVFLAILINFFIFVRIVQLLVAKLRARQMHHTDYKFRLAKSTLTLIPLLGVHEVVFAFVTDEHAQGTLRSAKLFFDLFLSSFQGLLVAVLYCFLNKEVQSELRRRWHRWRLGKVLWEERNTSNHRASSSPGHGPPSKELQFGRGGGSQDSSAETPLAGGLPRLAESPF

COc1ccc2cc(-c3cc(-c4cc(C(F)(F)F)ccc4F)nn3[C@@H](C)c3ccc(C(=O)NCCC(=O)O)cc3)ccc2c1 [GRA1, N-[4-((1S)-1-{3-(2-fluoro-5-trifluoromethylphenyl)-5-[6-methoxynaphth-2-yl]-1H-pyrazol-1-yl}ethyl)benzoyl]-β-alanine]
IC50 (human GCGR (hGCGR)): 12 nM | concentration at 1 h ([1]; rhesus monkey, plasma, oral, 1 mg/kg, 1 h postdose (glucagon challenge)): 200 nM | half-life ([1]; rhesus monkey, plasma, single oral dose 2 mg/kg, read-out: Apparent plasma terminal half-life (converted)): 6.3 h | Fraction of the dose absorbed ([1]; single oral dose 2 mg/kg): 55% | Route of excretion ([1]; single oral dose 2 mg/kg): nearly all absorbed drug was excreted unchanged via the bile | Baseline-subtracted mean AUC0–50 of glucagon-stimulated blood glucose excursion (hGCGR mouse; 3 mg/kg p.o. 1 h before 15 µg/kg glucagion i.p.): 812 ± 122 mg·min/dL | Baseline-subtracted mean AUC0–50 of glucagon-stimulated blood glucose excursion (hGCGR mouse; 10 mg/kg p.o. 1 h before 15 µg/kg glucagon i.p.): 543 ± 68 mg·min/dL | Baseline-subtracted mean AUC0–50 of glucagon-stimulated blood glucose excursion (hGCGR mouse; 30 mg/kg p.o. 1 h before 15 µg/kg glucagon i.p.): 476 ± 64 mg·min/dL | Hypoglycemia (rhesus monkeys; normoglycemic rhesus, 30 mg/kg once daily, 14 days): not rendered hypoglycemic | Plasma insulin (rhesus monkeys; rhesus, 30 mg/kg once daily (data not shown)): unaffected | Alanine, fasted plasma (rhesus monkeys; [2]): 200 ± 21 µM | Arginine, fasted plasma (rhesus monkeys; [2]): 124 ± 15 µM | Asparagine, fasted plasma (rhesus monkeys; [2]): 61.2 ± 17.8 µM | Aspartic acid, fasted plasma (rhesus monkeys; [2]): 5.3 ± 1.3 µM | Glucagon, fasted plasma (rhesus monkeys; [2]): 381 ± 74 pg/mL | Glucose, fasted plasma (rhesus monkeys; [2]): 85.3 ± 9.4 mg/dL | Glutamic acid, fasted plasma (rhesus monkeys; [2]): 48.1 ± 3.6 µM | Glutamine, fasted plasma (rhesus monkeys; [2]): 597 ± 66 µM | Glycine, fasted plasma (rhesus monkeys; [2]): 300 ± 32 µM | Histidine, fasted plasma (rhesus monkeys; [2]): 121 ± 11 µM | Hydroxyproline, fasted plasma (rhesus monkeys; [2]): 12.9 ± 2.3 µM | Isoleucine, fasted plasma (rhesus monkeys; [2]): 98.2 ± 8.3 µM | Leucine, fasted plasma (rhesus monkeys; [2]): 147 ± 9 µM | Lysine, fasted plasma (rhesus monkeys; [2]): 191 ± 25 µM | Methionine, fasted plasma (rhesus monkeys; [2]): 22.9 ± 2.7 µM | Phenylalanine, fasted plasma (rhesus monkeys; [2]): 47.8 ± 2.4 µM | Proline, fasted plasma (rhesus monkeys; [2]): 118 ± 13 µM | Serine, fasted plasma (rhesus monkeys; [2]): 123 ± 8 µM | Threonine, fasted plasma (rhesus monkeys; [2]): 95.2 ± 5.9 µM | Tyrosine, fasted plasma (rhesus monkeys; [2]): 77.2 ± 6.8 µM | Valine, fasted plasma (rhesus monkeys; [2]): 256 ± 21 µM | Alanine, fasted plasma (rhesus monkeys; [3]): 500 ± 79 µM | Arginine, fasted plasma (rhesus monkeys; [3]): 237 ± 33 µM | Asparagine, fasted plasma (rhesus monkeys; [3]): 42.5 ± 8.3 µM | Aspartic acid, fasted plasma (rhesus monkeys; [3]): 5.6 ± 0.7 µM | Glucagon, fasted plasma (rhesus monkeys; [3]): 921 ± 16 pg/mL | Glucose, fasted plasma (rhesus monkeys; [3]): 63.7 ± 2.7 mg/dL | Glutamic acid, fasted plasma (rhesus monkeys; [3]): 71.9 ± 5.7 µM | Glutamine, fasted plasma (rhesus monkeys; [3]): 986 ± 150 µM | Glycine, fasted plasma (rhesus monkeys; [3]): 533 ± 70 µM | Histidine, fasted plasma (rhesus monkeys; [3]): 153 ± 14 µM | Hydroxyproline, fasted plasma (rhesus monkeys; [3]): 15.4 ± 2.3 µM | Isoleucine, fasted plasma (rhesus monkeys; [3]): 72.4 ± 7.9 µM | Leucine, fasted plasma (rhesus monkeys; [3]): 164 ± 24 µM | Lysine, fasted plasma (rhesus monkeys; [3]): 390 ± 56 µM | Methionine, fasted plasma (rhesus monkeys; [3]): 50.2 ± 10.0 µM | Phenylalanine, fasted plasma (rhesus monkeys; [3]): 52.6 ± 7.0 µM | Proline, fasted plasma (rhesus monkeys; [3]): 326 ± 54 µM | Serine, fasted plasma (rhesus monkeys; [3]): 228 ± 24 µM | Threonine, fasted plasma (rhesus monkeys; [3]): 179.1 ± 25.1 µM | Tyrosine, fasted plasma (rhesus monkeys; [3]): 161.4 ± 26.8 µM | Valine, fasted plasma (rhesus monkeys; [3]): 252 ± 33 µM | Alanine, fasted plasma (rhesus monkeys; [4]): 456 ± 68 µM | Arginine, fasted plasma (rhesus monkeys; [4]): 341 ± 76 µM | Asparagine, fasted plasma (rhesus monkeys; [4]): 54.2 ± 10.8 µM | Aspartic acid, fasted plasma (rhesus monkeys; [4]): 6.7 ± 1.2 µM | Glucagon, fasted plasma (rhesus monkeys; [4]): 874 ± 101 pg/mL | Glucose, fasted plasma (rhesus monkeys; [4]): 69.2 ± 4.9 mg/dL | Glutamic acid, fasted plasma (rhesus monkeys; [4]): 98.9 ± 15.2 µM | Glutamine, fasted plasma (rhesus monkeys; [4]): 1186 ± 164 µM | Glycine, fasted plasma (rhesus monkeys; [4]): 558 ± 74 µM | Histidine, fasted plasma (rhesus monkeys; [4]): 170 ± 15 µM | Hydroxyproline, fasted plasma (rhesus monkeys; [4]): 23.3 ± 5.3 µM | Isoleucine, fasted plasma (rhesus monkeys; [4]): 88.6 ± 8.2 µM | Leucine, fasted plasma (rhesus monkeys; [4]): 215 ± 44 µM | Lysine, fasted plasma (rhesus monkeys; [4]): 340 ± 71 µM | Methionine, fasted plasma (rhesus monkeys; [4]): 36.1 ± 5.6 µM | Phenylalanine, fasted plasma (rhesus monkeys; [4]): 49.7 ± 3.3 µM | Proline, fasted plasma (rhesus monkeys; [4]): 490 ± 95 µM | Serine, fasted plasma (rhesus monkeys; [4]): 256 ± 41 µM | Threonine, fasted plasma (rhesus monkeys; [4]): 160.9 ± 21.3 µM | Tyrosine, fasted plasma (rhesus monkeys; [4]): 110.6 ± 7.9 µM | Valine, fasted plasma (rhesus monkeys; [4]): 260 ± 17 µM | Alanine, fasted plasma (rhesus monkeys; [5]): 361 ± 51 µM | Arginine, fasted plasma (rhesus monkeys; [5]): 282 ± 54 µM | Asparagine, fasted plasma (rhesus monkeys; [5]): 33.8 ± 4.8 µM | Aspartic acid, fasted plasma (rhesus monkeys; [5]): 5.9 ± 0.8 µM | Glucagon, fasted plasma (rhesus monkeys; [5]): 984 ± 186 pg/mL | Glucose, fasted plasma (rhesus monkeys; [5]): 69.2 ± 3.8 mg/dL | Glutamic acid, fasted plasma (rhesus monkeys; [5]): 91.9 ± 10.0 µM | Glutamine, fasted plasma (rhesus monkeys; [5]): 1151 ± 191 µM | Glycine, fasted plasma (rhesus monkeys; [5]): 531 ± 76 µM | Histidine, fasted plasma (rhesus monkeys; [5]): 187 ± 21 µM | Hydroxyproline, fasted plasma (rhesus monkeys; [5]): 15.3 ± 2.3 µM | Isoleucine, fasted plasma (rhesus monkeys; [5]): 89.6 ± 7.8 µM | Leucine, fasted plasma (rhesus monkeys; [5]): 218 ± 36 µM | Lysine, fasted plasma (rhesus monkeys; [5]): 375 ± 70 µM | Methionine, fasted plasma (rhesus monkeys; [5]): 34.7 ± 6.3 µM | Phenylalanine, fasted plasma (rhesus monkeys; [5]): 51.5 ± 1.8 µM | Proline, fasted plasma (rhesus monkeys; [5]): 415 ± 84 µM | Serine, fasted plasma (rhesus monkeys; [5]): 217 ± 28 µM | Threonine, fasted plasma (rhesus monkeys; [5]): 155.3 ± 23.3 µM | Tyrosine, fasted plasma (rhesus monkeys; [5]): 105.8 ± 9.9 µM | Valine, fasted plasma (rhesus monkeys; [5]): 276 ± 20 µM | Increase of plasma glucagon relative to vehicle-treated controls (rhesus monkeys; rhesus, 30 mg/kg once daily, both Day 1 and Day 7): approximately 3 fold
